Columns and labels:
[1] = target: T1, Bradykinin B1 (Homo sapiens, UniProt P46663); experiment: Radioligand displacement (Ricerca); type: binding
T1 construct: Ricerca

[2] = target: T2, Transporter, GABA (Rattus norvegicus, UniProt P23978); experiment: Radioligand displacement (Ricerca); type: binding
T2 construct: Ricerca (contract panel)

[3] = target: T3, GIRK1/4 (Homo sapiens, UniProt P48544+P48549); experiment: Thallium flux assay, HEK-293 cells expressing GIRK1/4; type: cell-based; conditions: cell line GIRK1-4; average ± SEM
T3 construct: expressed in transfected cells; host or cells: HEK-293
T3 sequence (P48549 1-501): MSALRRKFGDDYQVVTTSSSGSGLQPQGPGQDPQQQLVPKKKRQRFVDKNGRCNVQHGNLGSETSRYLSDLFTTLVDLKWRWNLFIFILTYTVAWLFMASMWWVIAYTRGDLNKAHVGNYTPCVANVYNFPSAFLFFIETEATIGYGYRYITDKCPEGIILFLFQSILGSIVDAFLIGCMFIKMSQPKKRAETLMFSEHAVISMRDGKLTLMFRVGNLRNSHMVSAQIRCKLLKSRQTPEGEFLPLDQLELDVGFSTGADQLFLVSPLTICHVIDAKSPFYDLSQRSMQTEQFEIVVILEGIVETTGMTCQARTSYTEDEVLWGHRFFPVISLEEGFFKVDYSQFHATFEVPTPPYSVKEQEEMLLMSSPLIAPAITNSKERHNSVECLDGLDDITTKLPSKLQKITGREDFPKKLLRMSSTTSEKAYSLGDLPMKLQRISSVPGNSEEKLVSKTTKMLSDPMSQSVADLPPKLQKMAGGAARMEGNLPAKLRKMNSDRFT
T3 sequence (P48544 1-419): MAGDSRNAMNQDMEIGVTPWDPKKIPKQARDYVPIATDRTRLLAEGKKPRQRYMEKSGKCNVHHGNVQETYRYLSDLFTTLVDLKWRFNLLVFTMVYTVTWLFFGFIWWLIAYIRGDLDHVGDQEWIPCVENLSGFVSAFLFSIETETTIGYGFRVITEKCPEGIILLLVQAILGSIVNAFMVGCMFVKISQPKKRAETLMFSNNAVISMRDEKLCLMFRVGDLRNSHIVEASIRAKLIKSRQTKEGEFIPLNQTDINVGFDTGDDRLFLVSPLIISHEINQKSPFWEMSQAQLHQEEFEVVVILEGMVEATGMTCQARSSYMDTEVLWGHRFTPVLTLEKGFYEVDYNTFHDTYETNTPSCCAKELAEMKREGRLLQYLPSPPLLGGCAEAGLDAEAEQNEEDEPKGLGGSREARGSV
Description: Cell Line Construction and Cell Culture. HEK-293 cells co-expressing human GIRK1/2 and rat mGlu8 were generated as previously described (Niswender et al., 2008). A HEK-293 cell line (ATCC, Manassas, Va.) expressing human GIRK1 and human GIRK2 was constructed by transfecting HEK-293 cells with GIRK1 and GIRK2 (Origene, Rockville, Md.) cloned into the pBudCE4.1 vector (Life Technologies, Carlsbad, Calif.) using FuGene 6 (Promega, Madison, Wis.) transfection reagent. Unless otherwise noted, other ion channel-expressing cells were prepared by transfecting HEK-293 cells with individual or combinations of subunits: GIRK1, pCMV6-A-BSD; GIRK2, pCMV6-A-puro; GIRK3, pCMV6-A-hygro; GIRK4, pCMV6-A-AC; Kv7.4, pIRESneo3. The Kir2.1 and hERG-expressing cell lines were made by transfecting T-REx-293 cells (Life Technologies, Carlsbad, Calif.) with Kir2.1 and Kv11.1, respectively, cloned into pcDNA5TO. Monoclonal cell lines were produced by limiting-dilution cloning of antibiotic-resistant cells and functional selection using the thallium flux assay described below. Unless otherwise noted, cells were maintained in Minimal Essential Medium, Alpha Medium (Mediatech, Manassas, Va.) supplemented with 10% fetal bovine serum (Sigma-Aldrich, Saint Louis, Mo.) and GlutaGro (Mediatech, Manassas, Va.), referred to henceforth as cell culture medium. […]

[4] = target: T4, N-Type Ca channel (Rattus norvegicus, UniProt Q02294); experiment: Radioligand displacement (Ricerca); type: binding
T4 construct: Ricerca

[5] = target: T5, Adrenergic β1 (Homo sapiens, UniProt P08588); experiment: Radioligand displacement (Ricerca); type: binding
T5 construct: Ricerca (contract assay)
T5 sequence (P08588 whole entry): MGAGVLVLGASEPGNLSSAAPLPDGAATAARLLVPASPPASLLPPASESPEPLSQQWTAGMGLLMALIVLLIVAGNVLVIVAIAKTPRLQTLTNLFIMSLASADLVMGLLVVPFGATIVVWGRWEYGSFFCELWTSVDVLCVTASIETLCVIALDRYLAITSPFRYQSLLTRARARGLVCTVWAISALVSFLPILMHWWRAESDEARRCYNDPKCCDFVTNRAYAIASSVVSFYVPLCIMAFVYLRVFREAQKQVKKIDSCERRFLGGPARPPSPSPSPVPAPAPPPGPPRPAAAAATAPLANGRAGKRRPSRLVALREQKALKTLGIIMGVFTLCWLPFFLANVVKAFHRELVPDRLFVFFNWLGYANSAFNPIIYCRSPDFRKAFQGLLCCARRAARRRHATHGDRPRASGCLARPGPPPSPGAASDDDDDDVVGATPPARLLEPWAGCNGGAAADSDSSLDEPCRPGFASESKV

T4 sequence (Q02294 whole entry): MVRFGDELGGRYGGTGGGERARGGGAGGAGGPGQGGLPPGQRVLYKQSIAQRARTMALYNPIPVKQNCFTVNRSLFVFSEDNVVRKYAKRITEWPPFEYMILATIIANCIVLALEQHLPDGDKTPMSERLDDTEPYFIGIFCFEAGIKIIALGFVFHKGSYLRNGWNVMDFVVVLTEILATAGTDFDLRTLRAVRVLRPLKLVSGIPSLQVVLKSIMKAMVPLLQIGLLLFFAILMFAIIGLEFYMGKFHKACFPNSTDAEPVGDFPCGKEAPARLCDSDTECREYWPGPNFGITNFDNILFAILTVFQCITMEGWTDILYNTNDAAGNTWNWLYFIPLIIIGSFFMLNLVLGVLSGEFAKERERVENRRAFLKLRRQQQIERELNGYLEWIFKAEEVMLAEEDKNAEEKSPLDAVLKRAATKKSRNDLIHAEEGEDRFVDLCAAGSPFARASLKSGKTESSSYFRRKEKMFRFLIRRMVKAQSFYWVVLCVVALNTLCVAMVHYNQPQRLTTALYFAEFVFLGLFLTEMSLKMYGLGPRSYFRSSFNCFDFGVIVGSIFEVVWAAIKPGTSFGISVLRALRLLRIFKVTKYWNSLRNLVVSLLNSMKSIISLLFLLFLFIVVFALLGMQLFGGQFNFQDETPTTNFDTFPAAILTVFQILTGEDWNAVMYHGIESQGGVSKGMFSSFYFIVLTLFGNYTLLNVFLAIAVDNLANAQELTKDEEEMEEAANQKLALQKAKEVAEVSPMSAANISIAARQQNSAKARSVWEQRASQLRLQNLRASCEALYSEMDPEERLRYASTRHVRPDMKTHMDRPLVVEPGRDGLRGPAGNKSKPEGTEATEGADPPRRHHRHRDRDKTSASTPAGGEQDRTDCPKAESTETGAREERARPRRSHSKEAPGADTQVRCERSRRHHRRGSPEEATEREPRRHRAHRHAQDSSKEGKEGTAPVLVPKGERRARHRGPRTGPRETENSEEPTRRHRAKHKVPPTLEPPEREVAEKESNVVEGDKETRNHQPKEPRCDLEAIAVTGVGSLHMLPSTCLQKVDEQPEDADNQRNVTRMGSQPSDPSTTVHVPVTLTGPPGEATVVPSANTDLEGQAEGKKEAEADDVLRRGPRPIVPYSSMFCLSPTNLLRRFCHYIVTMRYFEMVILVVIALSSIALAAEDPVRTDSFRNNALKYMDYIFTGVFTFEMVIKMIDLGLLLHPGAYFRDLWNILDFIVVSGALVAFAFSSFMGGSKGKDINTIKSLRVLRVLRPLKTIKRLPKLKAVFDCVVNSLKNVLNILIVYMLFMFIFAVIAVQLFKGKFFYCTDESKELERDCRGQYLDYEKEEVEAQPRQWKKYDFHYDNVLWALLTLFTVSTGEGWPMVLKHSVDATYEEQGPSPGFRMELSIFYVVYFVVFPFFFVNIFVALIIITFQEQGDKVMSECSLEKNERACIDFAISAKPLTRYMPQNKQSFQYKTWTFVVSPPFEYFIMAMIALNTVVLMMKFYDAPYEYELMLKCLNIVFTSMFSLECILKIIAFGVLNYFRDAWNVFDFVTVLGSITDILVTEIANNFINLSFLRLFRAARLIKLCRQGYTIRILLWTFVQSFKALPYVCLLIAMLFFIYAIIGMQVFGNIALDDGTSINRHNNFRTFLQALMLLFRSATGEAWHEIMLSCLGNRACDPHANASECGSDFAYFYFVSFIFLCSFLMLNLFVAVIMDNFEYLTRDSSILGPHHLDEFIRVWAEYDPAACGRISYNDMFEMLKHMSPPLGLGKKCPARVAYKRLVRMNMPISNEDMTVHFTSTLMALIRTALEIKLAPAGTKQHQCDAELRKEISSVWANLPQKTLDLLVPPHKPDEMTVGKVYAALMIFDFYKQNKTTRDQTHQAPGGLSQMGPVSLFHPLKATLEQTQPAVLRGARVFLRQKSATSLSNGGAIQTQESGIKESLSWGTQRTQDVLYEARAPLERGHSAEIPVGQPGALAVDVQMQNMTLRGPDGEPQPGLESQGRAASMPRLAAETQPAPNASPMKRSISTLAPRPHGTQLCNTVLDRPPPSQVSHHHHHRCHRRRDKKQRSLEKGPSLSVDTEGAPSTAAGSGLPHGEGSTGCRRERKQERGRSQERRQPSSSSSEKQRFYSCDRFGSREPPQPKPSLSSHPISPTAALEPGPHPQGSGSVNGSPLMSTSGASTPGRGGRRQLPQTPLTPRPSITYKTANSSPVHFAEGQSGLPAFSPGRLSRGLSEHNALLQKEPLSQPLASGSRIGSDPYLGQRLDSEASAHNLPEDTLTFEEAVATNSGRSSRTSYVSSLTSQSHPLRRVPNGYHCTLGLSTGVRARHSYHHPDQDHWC
T1 sequence (P46663 whole entry): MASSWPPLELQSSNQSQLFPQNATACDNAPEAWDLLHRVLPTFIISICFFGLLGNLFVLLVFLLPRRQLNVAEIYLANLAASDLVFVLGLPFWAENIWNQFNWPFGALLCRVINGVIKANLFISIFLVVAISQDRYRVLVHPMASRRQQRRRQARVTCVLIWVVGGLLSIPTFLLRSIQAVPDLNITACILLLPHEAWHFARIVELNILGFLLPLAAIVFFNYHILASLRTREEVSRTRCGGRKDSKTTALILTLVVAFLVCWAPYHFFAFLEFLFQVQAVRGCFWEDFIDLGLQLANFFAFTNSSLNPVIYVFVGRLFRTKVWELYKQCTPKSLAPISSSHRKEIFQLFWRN

Structure (SMILES): Cc1cc(NC(=O)Nc2ccc(F)c(F)c2)n(-c2ccccc2)n1 [VU0456810, 1-(3,4-difluorophenyl)-3-(3-methyl-1-phenyl-1H-pyrazol-5-yl)urea]
- inhibition at 10 µM [1]: -2%
- inhibition at 10 µM [2]: 5%
- EC50 [3]: 887 ± 266 nM
- EC50 Thallium Flux [3]: able to activate
- inhibition at 10 µM [4]: 5%
- inhibition at 10 µM [5]: 0%
